# Reference: patent publication US20190201409A1, “COMBINATION THERAPY” (MEI Pharma, Inc., priority 2016, published 2019)
# Key:
# Format in all cases: cell-based
# DOHH-2 cells = test: ATPLite growth inhibition assay, single agent and combination (Loewe synergy); details: single agent
# Experimental: (§1) The activity of compound I was examined in combination with PCI-32765 (ibrutinib), ABT-199 (venetoclax) and EPZ-6438 (Tazemetostat) across a panel of 8 DLBCL cell lines indicated below (7 GCB subtype cell lines and 1 ABC subtype cell line).
# (§2) The effect of test compounds and combinations on growth inhibition as a measure of cell viability was determined in an ATPLite assay. The endpoint readout of the assay was based upon quantitation of ATP as an indicator of viable cells.
# (§3) Cells were thawed from a liquid nitrogen preserved state. Once cells were expanded and divided at their expected doubling times, screening begins. Cells were seeded in growth media in black 384-well tissue culture treated plates at 500 cells per well (except where noted in Analyzer). Cells were equilibrated in assay plates via centrifugation and placed in incubators attached to the Dosing Modules at 37° C. for 24 hours before treatment. […] These Tzero (T0) plates were read using ultra-sensitive luminescence on Envision Plate Readers. Treated assay plates were incubated with compound for 72 hours. All data points were collected via automated processes; quality controlled; and analyzed using Horizon Discovery proprietary software. Assay plates were accepted if they pass the following quality control standards: relative luciferase values were consistent throughout the entire experiment, Z-factor scores were greater than 0.6, untreated/vehicle controls behaved consistently on the plate.
# (§4) Growth Inhibition (GI) was used as a measure of cell viability. The cell viability of vehicle was measured at the time of dosing (T0) and after seventy two hours (T72). A GI reading of 0% represented no growth inhibition—cells treated with compound and T72 or T120 vehicle signals were matched. A GI 100% represented complete growth inhibition—cells treated by compound and To vehicle signals were matched. […] A GI 200% represents complete death of all cells in the culture well. Compounds reaching an activity plateau of GI 200% were considered cytotoxic. GI was calculated by applying the following test and equation: […]
# (§5) where T is the signal measure for a test article, V is the vehicle-treated control measure, and V0 is the vehicle control measure at time zero. This formula is derived from the Growth Inhibition calculation used in the National Cancer Institute's[sic] NCl[sic]−60 high throughput screen.
# (§6) Loewe Additivity model was used for measuring the effects of drug combinations. The Loewe additivity model is dose-based and applies only to the activity levels achieved by the single agents. Loewe Volume was used to assess the overall magnitude of the combination interaction in excess of the Loewe additivity model. Loewe Volume is particularly useful when distinguishing synergistic increases in a phenotypic activity (positive Loewe Volume) versus synergistic antagonisms (negative Loewe Volume). When antagonisms are observed, the Loewe Volume should be assessed to examine if there is any correlation between antagonism and a particular drug target-activity or cellular genotype. This model defines additivity as a non-synergistic combination interaction where the combination dose matrix surface should be indistinguishable from either drug crossed with itself. The calculation for additivity is:
# (§7) To measure combination effects in excess of Loewe additivity, a scalar measure to characterize the strength of synergistic interaction was devised and termed the Synergy Score. The Synergy Score was calculated as:
# (§8) Synergy Score=log fX log fYΣ max(0,Idata)(Idata−ILoewe)
# (§9) The fractional inhibition for each component agent and combination point in the matrix was calculated relative to the median of all vehicle-treated control wells. The Synergy Score equation integrates the experimentally-observed activity volume at each point in the matrix in excess of a model surface numerically derived from the activity of the component agents using the Loewe model for additivity. […]
# NU-DHL-1 cells = test: as above; details: single agent
# Experimental: as §1, §2, §3, §4, §5, §6, §7, §8, §9
# OCI-Ly19 cells = test: as above; details: single agent
# Experimental: as §1, §2, §3, §4, §5, §6, §7, §8, §9
# OCI-Ly3 cells = test: as above; details: single agent
# Experimental: as §1, §2, §3, §4, §5, §6, §7, §8, §9
# Pfeiffer cells = test: as above; details: single agent
# Experimental: as §1, §2, §3, §4, §5, §6, §7, §8, §9
# SU-DHL-10 cells = test: as above; details: single agent; printed SU-DIAL-10
# Experimental: as §1, §2, §3, §4, §5, §6, §7, §8, §9
# [1] = tested on: panel of 8 DLBCL cell lines; test: ATPLite growth inhibition assay across the cell line panel; details: single agent, FIG. 9
# Experimental: as §1, §2
# Cells were thawed from a liquid nitrogen preserved state. Once cells were expanded and divided at their expected doubling times, screening begins. Cells were seeded in growth media in black 384-well tissue culture treated plates at 500 cells per well (except where noted in Analyzer). […] These Tzero (T0) plates were read using ultra-sensitive luminescence on Envision Plate Readers. […] All data points were collected via automated processes; quality controlled; and analyzed using Horizon Discovery proprietary software. […]
# Growth Inhibition (GI) was used as a measure of cell viability. The cell viability of vehicle was measured at the time of dosing (T0) and after seventy two hours (T72). A GI reading of 0% represented no growth inhibition—cells treated with compound and T72 or T120 vehicle signals were matched. […] GI was calculated by applying the following test and equation: […]
smiles,measurement,setting,value
"CN1CCC(c2ccccc2CC(C)(C)Nc2nc(N3CCOCC3)nc(-n3c(C(F)F)nc4ccccc43)n2)CC1 [Compound I, 4-(2-(difluoromethyl)-1H-benzo[d]imidazol-1-yl)-N-(2-methyl-1-(2-(1-methylpiperidin-4-yl)phenyl)propan-2-yl)-6-morpholino-1,3,5-triazin-2-amine]",kind of growth inhibition effect (FIG. 10),DOHH-2 cells,cytotoxic effects
same,kind of growth inhibition effect (FIG. 10),NU-DHL-1 cells,sub-cytostatic effects
same,kind of growth inhibition effect (FIG. 10),OCI-Ly19 cells,cytotoxic effects
same,kind of growth inhibition effect (FIG. 10),OCI-Ly3 cells,cytotoxic effects
same,kind of growth inhibition effect (FIG. 10),Pfeiffer cells,sub-cytostatic effects
same,kind of growth inhibition effect (FIG. 10),SU-DHL-10 cells,sub-cytostatic effects
same,growth inhibition levels,[1]; all cell lines,> 50%
same,GI50,[1]; median across cell line panel,1730 nM
